Test results taken from patent US20240182446A1, “TYK2 INHIBITOR COMPOUND CONTAINING BICYCLIC RING” (CHIA TAI TIANQING PHARMACEUTICAL GROUP CO., LTD., priority 2021, published 2024).
Read-outs that look alike come from different tables or passages of the source. Marks after values point to notes of the source that are not given here.

Tests used:
[1] = test system: STAT3 phosphorylation in Jurkat cells; test: Detection of STAT3 phosphorylation using Jurkat cells stimulated with IFN-α; type: cell-based; conditions: Homo sapiens, IFN-α 25 ng/mL, 30 min, compound pre-incubation 1.5 h
Method: 20 μL of Jurkat cells growing at log phase were taken and counted, and the required number of cells (mL) were taken and centrifuged at 1300 rpm for 3 min. Phenol red-free 1640 base medium (Hyclone) was added to adjust the cell density to about 1.7*10E7 cells/mL. The cells were seeded according to the above cell density in a 384-well plate (small-volume white plate) at 8 μL per well. The compound was added with a nanoliter pipettor, and the plate was incubated for 1.5 h. IFN-α (Beijing Sino Biological) was diluted to 75 ng/mL (with a final concentration of 25 ng/mL) with phenol red-free 1640 base medium. Subsequently, 4 μL of IFN-α (3×) was added to each well according to the plate distribution. The blank group was seeded with cells, without compound and IFN-α. The control group was seeded with cells, without compound but with IFN-α. The plate was incubated at 37° C. for 30 min. 4 μL of lysis buffer (4×) containing blocking buffer was added immediately, and the cells were lysed by shaking at room temperature for 40 min. […] pre-mixed antibody (vol/vol) in assay buffer was added and the plate was covered. The mixture was mixed well by centrifugation and incubated overnight at room temperature. Signal values at 665 nm/620 nm were detected using a PE Envision multi-functional microplate reader, and IC50 was calculated by tour-parameter fitting.

[2] = In vitro stability in liver microsomes (monkey); type: in vitro ADME; conditions: compound 1 μM
Method: (§1) 300 μL of the final incubation system contained 30 μL of liver microsomes (protein concentration: 5 mg/mL). 30 μL of NADPH+MgCl2, 3 μL of the test compound (in acetonitrile), and 237 μL of PBS buffer (pH 7.4), wherein the proportion of the organic solvent (acetonitrile) was 1% (volume ratio). Samples were prepared in duplicate of 0.30 mL for each specie. Tubes each containing 270 μL of a mixed solution of substrate and enzyme and NADPH were pre-incubated at 37° C. for 5 min. 30 μL of NADPH+MgCl2 was added and the mixture was mixed. 50 μL of the mixture was taken at 0 min, 10 min, 30 min, and 60 min, and 300 μL of glacial acetonitrile containing an internal standard was added to terminate the reaction.
(§2) 300 μL of glacial acetonitrile containing an internal standard (20 ng/mL) was added to 50 μL of the incubated sample for precipitation. The mixture was vortexed for 10 min and centrifuged (13,000 rpm, 20° C.) for 10 min. 70 μL of supernatant was taken and diluted with 70 μL of ultrapure water. After being mixed well, 0.5 μL of the resulting sample was subjected to LC/MS/MS analysis.

[3] = In vitro stability in liver microsomes (human); type: in vitro ADME; conditions: compound 1 μM
Method: as §1, §2

[4] = In vitro stability in liver microsomes (mouse); type: in vitro ADME; conditions: compound 1 μM
Method: as §1, §2

[5] = In vivo pharmacokinetics in mice; conditions: ICR mice, plasma; for AUC(0-t): read-out: AUC(0-10 h); for MRT last: read-out: MRT(0-t)
Method: ICR mice (Shanghai Institute of Planned Parenthood Research) of 6-8 weeks old, weighing 20-24 g, were randomized into groups of 9 after 3-5 days of acclimatization, and the test compounds at a dose of 15 mg/kg or 30 mg/kg were administered intragastrically to the mice.
The animals to be tested (ICR mice) were fasted for 12 h before administration and food was provided 4 h after administration, and water was freely drunk before and after the experiment and during the experiment.
After intragastrric administration, about 0.1 mL of blood was collected from the orbit at 0.25 (15 min), 0.5 (30 min), 1, 2, 4, 6, 8, and 10 h. Each mouse was subjected to blood collection at 3-4 time points, with three mice per time point. The blood samples were mixed with EDTA-K2 anticoagulant, transferred to a centrifuge within 30 min, and then centrifuged at 4000 rpm for 10 min. at 4° C. to separate the plasma. All the plasma samples were collected and immediately stored at −20° C. for testing.
400 μL of acetonitrile solution containing an internal standard (20 ng/mL) was added to 20 μL of the collected plasma sample to be tested. The mixture was shaken and mixed well for 10 min, and centrifuged at 13,000 rpm for 10 min 50 μL of supernatant was taken and diluted with 100 μL of ultrapure water. After being mixed well, 0.5 μL of the resulting sample was subjected to LC/MS/MS, and a chromatogram was recorded.
Oral exposure of the compounds disclosed herein was evaluated by in vivo pharmacokinetic experiments in mice.

[6] = test system: mouse colitis model induced by anti-mouse CD40 antibody; test: Pharmacodynamics in mouse colitis model induced by anti-CD40 mAb antibody; type: in vivo, CB17-SCID mice; conditions: Day 7, vs model control
Method: SPF-grade male CB17-SCID mice (6-8 weeks old) were divided into groups on the first day of the experiment. On the first day of the experiment, the mice in the blank group were intraperitoneally injected with PBS, while the mice in the model group were intraperitoneally injected with anti-mouse CD40 antibody (100 μg, diluted with PBS as a modeling agent solution), so as to establish a mouse colitis model. The injection volume for all groups of mice was 0.1 mL.
The day of grouping was determined as Day 1, and the intragastric administration was started on the grouping day, with a volume of 2 mL/kg administered twice daily for 6 consecutive days. The vehicle for intragastric administration was: DMSO:PEG400=5:95 (volume ratio).
Animal body weights were monitored daily during the experiment. On Day 7, the end point of the experiment, all mice were euthanized and tissue samples were collected. Mice were euthanized by cervical dislocation, abdomen of the mice were cut open, and mouse spleens were collected, weighed, and photographed. The colorectum was separated from the small intestine from the end of the cecum to the anus, and the whole colorectum was removed, photographed, and then dissected longitudinally along its longitudinal axis. The intestinal contents were cleansed with a pre-cooled saline solution. The rinsed colorectum was laid flat in a large flat dish with the mucosal side thereof facing upward. Residual saline solution was removed from the […] with filter paper, and colonic tissues were taken for weighing.
The inhibition rate (%) was calculated according to the following formula: inhibition rate (%)=(M−T)/(M−C)*100% (T: treatment group; C: blank control group; M: model control group).

Row | Compound | IC50 [1] | Human Residuals at 60 min (%) [3] | Mouse Residuals at 60 min (%) [4] | also measured
1 | [2H]C([2H])([2H])NC(=O)c1nnc(NC(=O)C2CC2)cc1Nc1cccc(-c2ncc(-c3cccnc3)cn2)c1OC [Compound 1-j] | 4.5 nM |  |  | 
2 | [2H]C([2H])([2H])NC(=O)c1nnc(NC(=O)C2CC2)cc1Nc1cccc(-c2ncc(-c3ccc(F)nc3)cn2)c1OC [Compound 3-j] |  | 103.99% | 99.92% | Monkey Residuals at 60 min (%) [2]: 95.82%
3 | [2H]C([2H])([2H])NC(=O)c1nnc(NC(=O)C2CC2)cc1Nc1cccc(-c2ncc(-c3cccnc3F)cn2)c1OC [Compound 5-j] | 2.9 nM | 107.15% | 99.08% | AUC(0-inf) ([5]; mouse, po, IG 30 mg/kg): 62600 ng·h/mL; Tmax ([5]; mouse, po, IG 30 mg/kg): 0.5 h; half-life ([5]; mouse, po, IG 30 mg/kg): 4.48 h; AUC(0-t) ([5]; mouse, po, IG 30 mg/kg): 60800 ng·h/mL; Cmax ([5]; mouse, po, IG 30 mg/kg, read-out: Cmax): 8100 ng/mL; MRT last ([5]; mouse, po, IG 30 mg/kg): 6.26 h; Monkey Residuals at 60 min (%) [2]: 99.31%
4 | [2H]C([2H])([2H])NC(=O)c1nnc(NC(=O)C2CC2)cc1Nc1cccc(-c2ncc(-c3cccnc3C(F)(F)F)cn2)c1OC [Compound 6-j] | 2.4 nM | 100.18% |  | Cmax ([5]; IG 30 mg/kg): 12534 ng/mL; t1/2 ([5]; IG 30 mg/kg): 6.26 h; AUC(0-inf) ([5]; mouse, po, IG 30 mg/kg): 63600 ng·h/mL; Tmax ([5]; mouse, po, IG 30 mg/kg): 0.5 h; AUC(0-t) ([5]; mouse, po, IG 30 mg/kg): 61200 ng·h/mL; MRT last ([5]; mouse, po, IG 30 mg/kg): 4.74 h; Spleen coefficient Inhibition rate (%) ([6]; 5 mg/kg i.g. bid for 6 days): 81.78%**; Spleen weight Inhibition rate (%) ([6]; 5 mg/kg i.g. bid for 6 days): 83.38%; Weight of intestinal tissue per unit length Inhibition rate (%) ([6]; 5 mg/kg i.g. bid for 6 days): 76.21%***
5 | [2H]C([2H])([2H])NC(=O)c1nnc(NC(=O)C2CC2)cc1Nc1cccc(-c2ncc(-c3ccc(F)nc3F)cn2)c1OC [Compound 12-j] | 4.5 nM |  |  | 
6 | [2H]C([2H])([2H])NC(=O)c1nnc(NC(=O)C2CC2)cc1Nc1cccc(-c2ncc(N3CCCC3=O)cn2)c1OC [Compound 18-h] | 5.3 nM | 106.77% | 94.80% | 
7 | [2H]C([2H])([2H])NC(=O)c1nnc(NC(=O)C2CC2)cc1Nc1cccc(-c2ncc(-c3cccnc3C#N)cn2)c1OC [Compound 26-h] | 5.3 nM |  |  | 
8 | [2H]C([2H])([2H])NC(=O)c1nnc(NC(=O)C2CC2)cc1Nc1cccc(-c2ncc(-c3ccnn3C)cn2)c1OC [Compound 34-h] | 5.7 nM | 99.75% | 92.69% | AUC(0-inf) ([5]; mouse, po, IG 15 mg/kg): 66700 ng·h/mL; Tmax ([5]; mouse, po, IG 15 mg/kg): 4 h; half-life ([5]; mouse, po, IG 15 mg/kg): 4.19 h; AUC(0-t) ([5]; mouse, po, IG 15 mg/kg): 65300 ng·h/mL; Cmax ([5]; mouse, po, IG 15 mg/kg, read-out: Cmax): 10200 ng/mL; MRT last ([5]; mouse, po, IG 15 mg/kg): 4.44 h; Spleen coefficient Inhibition rate (%) ([6]; 5 mg/kg i.g. bid for 6 days): 83%***; Spleen weight Inhibition rate (%) ([6]; 5 mg/kg i.g. bid for 6 days): 82%***; Weight of intestinal tissue per unit length Inhibition rate (%) ([6]; 5 mg/kg i.g. bid for 6 days): 70%***
9 | [2H]C([2H])([2H])NC(=O)c1nnc(NC(=O)C2CC2)cc1Nc1cccc(-c2ncc(N3CC[C@@H](O)C3)cn2)c1OC [Compound 44-j] |  | 98.44% | 91.31% | 
10 | [2H]C([2H])([2H])NC(=O)c1nnc(NC(=O)C2CC2)cc1Nc1cccc(-c2ncc(N3CC(C)(C)CC3=O)cn2)c1OC [Compound 47-j] | 2.4 nM |  |  | 
11 | [2H]C([2H])([2H])NC(=O)c1nnc(NC(=O)C2CC2)cc1Nc1cccc(-c2ncc(N3CCC(C)(C)C3=O)cn2)c1OC [Compound 49-j] | 5.2 nM |  |  | 
12 | [2H]C([2H])([2H])NC(=O)c1nnc(NC(=O)C2CC2)cc1Nc1cccc(-c2ncc(N3CC(O)C3)cn2)c1OC [Compound 51-j] | 7.1 nM |  | 96.42% | 
13 | [2H]C([2H])([2H])NC(=O)c1nnc(NC(=O)C2CC2)cc1Nc1cccc(-c2ncc(-c3cccnc3C)cn2)c1OC [Compound 52-j] | 2.7 nM |  |  | Spleen coefficient Inhibition rate (%) ([6]; 15 mg/kg i.g. bid for 6 days): 101%***; Spleen weight Inhibition rate (%) ([6]; 15 mg/kg i.g. bid for 6 days): 102%***; Weight of intestinal tissue per unit length Inhibition rate (%) ([6]; 15 mg/kg i.g. bid for 6 days): 101%***
14 | [2H]C([2H])([2H])NC(=O)c1nnc(NC(=O)C2CC2)cc1Nc1cccc(-c2ncc(N3CC[C@H](O)C3)cn2)c1OC [Compound 53-j] | 5.1 nM |  | 94.17% | 
15 | [2H]C([2H])([2H])NC(=O)c1nnc(NC(=O)C2CC2)cc1Nc1cccc(-c2ncc(-c3cncnc3C)cn2)c1OC [Compound 54-j] | 3.4 nM |  | 92.35% | 
16 | [2H]C([2H])([2H])NC(=O)c1nnc(NC(=O)C2CC2)cc1Nc1cccc(-c2ncc(-n3ccnc3C)cn2)c1OC [Compound 55-j] | 5.2 nM |  |  | 
17 | [2H]C([2H])([2H])NC(=O)c1cnc(NC(=O)C2CC2)cc1Nc1cccc(-c2ncc(-c3cccnc3F)cn2)c1OC [Compound 57-j] | 4.4 nM |  |  | 
18 | [2H]C([2H])([2H])NC(=O)c1nnc(NC(=O)C2CC2)cc1Nc1cccc(-c2ncc(N3CC[C@@H](O)C3)cn2)c1OC [Compound 59-j] | 5 nM |  | 100.66% | 
19 | [2H]C([2H])([2H])NC(=O)c1cnc(NC(=O)C2CC2)cc1Nc1cccc(-c2ncc(N3CCCC3)cn2)c1OC [Compound 60-j] | 8.5 nM |  |  | 
